Reference: patent publication US20100035926A1, “PYRAZOLE DERIVATIVES AS NON-STEROIDAL GLUCOCORTICOID RECEPTOR LIGANDS” (priority 2006, published 2010)
Read-outs that look alike come from different tables or passages of the source.

Assays:
[1] = biological target: T1, glucocorticoid receptor (Homo sapiens, UniProt P04150); assay: Glucocorticoid Receptor Binding Assay (fluorescence polarisation, displacement of Alexa 555 labelled dexamethasone derivative); conditions: at least once in this assay; read-out: glucocorticoid binding pIC50 (converted)
T1 construct: a partially purified full length glucocorticoid receptor
T1 sequence (P04150 1-777): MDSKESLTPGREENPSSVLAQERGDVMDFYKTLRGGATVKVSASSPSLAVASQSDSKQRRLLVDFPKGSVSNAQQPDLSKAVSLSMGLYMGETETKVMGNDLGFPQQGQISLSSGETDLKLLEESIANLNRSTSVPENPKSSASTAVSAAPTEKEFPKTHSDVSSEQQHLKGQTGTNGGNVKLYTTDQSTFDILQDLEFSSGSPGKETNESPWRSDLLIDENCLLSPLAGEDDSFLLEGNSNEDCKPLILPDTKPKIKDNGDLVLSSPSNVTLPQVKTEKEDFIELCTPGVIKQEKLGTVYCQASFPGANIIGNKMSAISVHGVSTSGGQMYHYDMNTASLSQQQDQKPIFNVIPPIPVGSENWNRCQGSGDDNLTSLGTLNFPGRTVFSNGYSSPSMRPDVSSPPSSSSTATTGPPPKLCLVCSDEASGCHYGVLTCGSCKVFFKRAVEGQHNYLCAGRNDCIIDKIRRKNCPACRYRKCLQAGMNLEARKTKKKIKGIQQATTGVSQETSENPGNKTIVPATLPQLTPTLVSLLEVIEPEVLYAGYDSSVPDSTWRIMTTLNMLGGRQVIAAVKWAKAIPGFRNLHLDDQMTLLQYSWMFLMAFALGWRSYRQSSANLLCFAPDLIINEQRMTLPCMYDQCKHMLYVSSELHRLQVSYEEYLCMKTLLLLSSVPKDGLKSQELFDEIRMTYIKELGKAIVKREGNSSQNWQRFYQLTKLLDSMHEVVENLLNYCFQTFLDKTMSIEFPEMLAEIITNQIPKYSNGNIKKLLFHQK
How it was run: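 Partially purified full-length GR incubated with test compound and fluorescent dexamethasone plus GR-stabilising buffer components, 2 hr at room temperature in the dark. Binding scored as displacement of tracer, read as decrease in fluorescence polarisation.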

[2] = biological target: T2, GR (Homo sapiens, UniProt P04150); assay: GR Agonist Assay - MMTV Assay (A549 MMTV cells, renilla luciferase reporter); assay type: cell-based; conditions: 6 h, agonists, read-out: average maximum asymptote in the MMTV agonist assay
T2 construct: endogenous in cells; host or cells: A549 (human lung carcinoma, ECACC No. 86012804), stably transfected with reporter plasmids only
T2 sequence (P04150 1-777): T1 sequence (P04150 1-777)
How it was run: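 Stably transfected A549 MMTV cells carry a GR-driven luciferase reporter. Cells at 0.1×10^6/ml in DMEM with 10% FCS and 25 mM HEPES were added to wells containing compound. After detection reagent, plates were held about 15 mins at room temperature and luminescence was read.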

[3] = biological target: T2, GR; assay: GR Functional Assay - NFκB Assay (A549 SPAP cells, TNFα stimulated); assay type: cell-based
How it was run: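 Stably transfected A549 SPAP cells at 0.16×10^6/ml in DMEM with 10% FCS were added to compound and stimulated with TNFα to drive NFκB-dependent SPAP expression. After 1 hr equilibration at room temperature, SPAP was read colorimetrically with pNPP in diethanolamine buffer, pH 9.8.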

[4] = Assay for Brain Penetrance; assay type: in vivo; conditions: brain and plasma, rat, single intravenous dose 1 mg/kg, read-out: brain to plasma ratio
Method: Each rat received a single intravenous dose at a level of 1 mg/kg. The dose was formulated in 10% DMSO/50% PEG200/40% sterile water. Terminal blood samples were taken at 5 or 15 mins after dosing, by cardiac puncture following anaesthesia with isofluorane. The brains were removed at the same time point.
The compounds were extracted from 20 μL plasma by protein precipitation using 120 μL acetonitrile containing an analogue compound as an internal standard. The filtered extracts were collected into a 96 well plate and were diluted with an equal volume of 10% acetonitrile containing 0.1% formic acid in water (v/v). The plate was then mixed on a plate shaker for at least 5 mins before analysis by LC-MS/MS against a calibration line prepared in control plasma.
Each brain was weighed, then homogenised in 3 ml acetonitrile:water (10:90v/v). The compounds were extracted from 200 μL of the resulting homogenate by protein precipitation using 600 μL acetonitrile containing an analogue compound as an internal standard. The extracts were centrifuged and 150 μl of each was filtered and transferred to a 96 well plate. The aliquot was diluted with 10% acetonitrile containing 0.1% formic acid in water (v/v). The plate was mixed on a plate shaker for at least 5 mins before analysis by LC-MS/MS against a calibration line prepared in control brain homogenate.

[5] = biological target: T3, Progesterone Receptor (Homo sapiens, UniProt P06401); assay: Assay for Progesterone Receptor Agonist Activity (CV-1 cells, PRb-BacMam, MMTV-BacMam); assay type: cell-based; conditions: at least once in this assay, read-out: progesterone receptor agonist pEC50 (converted)
T3 construct: expressed in transfected cells; host or cells: CV-1 cells transduced with PRb-BacMam and MMTV-BacMam
T3 sequence (P06401 1-933): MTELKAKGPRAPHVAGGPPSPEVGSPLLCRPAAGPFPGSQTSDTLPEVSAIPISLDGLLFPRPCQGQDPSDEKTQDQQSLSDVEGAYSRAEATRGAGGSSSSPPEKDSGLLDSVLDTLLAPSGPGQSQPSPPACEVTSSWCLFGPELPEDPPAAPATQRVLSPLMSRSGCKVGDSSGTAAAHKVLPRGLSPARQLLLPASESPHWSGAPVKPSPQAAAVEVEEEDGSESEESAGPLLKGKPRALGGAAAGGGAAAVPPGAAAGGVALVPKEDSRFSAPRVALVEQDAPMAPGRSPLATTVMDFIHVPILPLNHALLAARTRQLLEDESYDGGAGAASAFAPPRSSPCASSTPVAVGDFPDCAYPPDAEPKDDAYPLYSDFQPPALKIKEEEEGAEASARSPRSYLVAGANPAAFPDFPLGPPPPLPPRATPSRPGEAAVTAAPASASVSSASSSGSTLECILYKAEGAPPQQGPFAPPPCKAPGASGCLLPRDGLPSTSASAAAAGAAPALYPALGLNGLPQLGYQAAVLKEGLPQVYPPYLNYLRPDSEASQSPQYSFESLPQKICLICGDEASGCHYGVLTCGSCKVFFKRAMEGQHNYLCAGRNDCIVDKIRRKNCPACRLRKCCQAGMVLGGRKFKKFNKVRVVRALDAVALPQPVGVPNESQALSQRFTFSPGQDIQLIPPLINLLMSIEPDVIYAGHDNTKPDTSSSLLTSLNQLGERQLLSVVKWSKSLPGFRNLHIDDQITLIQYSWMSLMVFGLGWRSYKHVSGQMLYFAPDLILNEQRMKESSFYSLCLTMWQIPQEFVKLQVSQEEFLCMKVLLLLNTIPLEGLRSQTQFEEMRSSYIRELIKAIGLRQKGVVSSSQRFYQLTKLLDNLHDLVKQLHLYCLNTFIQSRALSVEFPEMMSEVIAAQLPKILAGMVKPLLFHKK
Method: A T225 flask of CV-1 cells at a density of 80% confluency was washed with PBS, detached from the flask using 0.25% trypsin and counted using a Sysmex KX-21N. Cells were diluted in DMEM containing 10% Hyclone, 2 mM […] and 1% Pen/Strep at 140 cells/μl and transduced with 10% PRb-BacMam and 10% MMTV-BacMam. […] of suspension cells were dispensed to each well of white Nunc 384-well plates, containing compounds at the required concentration. After 24 hr 10 μl of Steadylite were added to each well of the plates. Plates were incubated in the dark for 10 min before reading them on a Viewlux reader. Dose response curves were constructed from which pEC50 values were estimated.

Compound	IC50 [1] [nM]	Emax [2] [%]	Emax ([3]; agonists, A549 SPAP cells, read-out: average maximum asymptote in the NFkB assay) [%]	IC50 ([3]; at least once in the NFkB assay, A549 SPAP cells, read-out: pIC50 in the NFkB assay (converted)) [nM]	IC50 ([3]; at least once, examples listed as agonists in NFkB and MMTV assays, read-out: potency pIC50 in the NFKB assay (converted)) [nM]	Kp at 5 min [4]	EC50 [5] [nM]
CCN(CC(O)(CNC(=O)c1cnn(-c2ccc(F)c(F)c2)c1N)C(F)(F)F)C(=O)c1ccccc1 (racemic) [Example 24 (racemic), 5-amino-1-(3,4-difluorophenyl)-N-(2-{[ethyl(phenylcarbonyl)amino]methyl}-3,3,3-trifluoro-2-hydroxypropyl)-1H-pyrazole-4-carboxamide]	< 1000	≥ 40	≥ 40	< 1000	< 316	≥ 0.1	–
CCN(CC(O)(CNC(=O)c1cnn(-c2ccc(F)cc2)c1N)C(F)(F)F)C(=O)c1ncccc1Cl (single isomer, unassigned) [Example 3 Enantiomer 1, N-[2-[({[5-Amino-1-(4-fluorophenyl)-1H-pyrazol-4-yl]carbonyl]amino)methyl]-3,3,3-trifluoro-2-hydroxypropyl}-3-chloro-N-ethyl-2-Pyridinecarboxamide]	–	–	–	–	–	≥ 0.1	> 1000
